Data published in PubChem BioAssay (NCI).
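Following 48 hours of exposure in 96-well plates, responses at five concentrations were used to interpolate endpoints linearly. The concentration for full growth arrest is given as TGI.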

Tests used:
Assay in all cases: NCI-60 cell line screen, 48 h
[1] = test system: A498 renal
[2] = test system: ACHN renal
[3] = test system: M14 melanoma
[4] = test system: NCI-H226 lung
[5] = test system: NCI-H522 lung
[6] = test system: OVCAR-8 ovarian
[7] = test system: RXF 393 renal
[8] = test system: SN12C renal
[9] = test system: U251 CNS
[10] = test system: UACC-257 melanoma

Row | Structure (SMILES) | TGI [1] [µM] | TGI [2] [µM] | TGI [3] [µM] | TGI [4] [µM] | TGI [5] [µM] | TGI [6] [µM] | TGI [7] [µM] | TGI [8] [µM] | TGI [9] [µM] | TGI [10] [µM]
1 | COC(=O)CCCC1(CCCC(=O)OC)CCCCCCCCC(CCCC(=O)OC)(CCCC(=O)OC)C(=O)C1=O | > 100 | > 100 | > 100 | > 100 | 5.38 | > 100 | 69.9 | > 100 | 40.7 | > 100
2 | CC(C)NCC(O)c1ccc(O)c2ncccc12 (stereo not given) | > 100 | > 100 | > 100 | > 100 | > 100 | > 100 | > 100 | > 100 | > 100 | > 100
3 | Nc1nc2c(c(-c3ccccc3Cl)n1)COC/C2=C\c1ccccc1Cl | 30.6 | 32.3 | 29.6 | 39.2 | 31 | 30.8 | 29.9 | 31.3 | 31.6 | 34.7
4 | N/C(=N\S(=O)(=O)c1ccc(-c2ccccn2)s1)Nc1ccc(Cl)cc1 | 25.8 | 33.6 | 33.6 | 35.8 | 24.4 | 37.6 | 35.3 | 30.3 | 28.6 | 21.1
5 | O=C(/C=C/c1ccc(OCc2ccccc2)cc1)NCc1ccc(C(=O)NCc2ccccc2)cc1 | > 100 | > 100 | > 100 | > 100 | > 100 | > 100 | > 100 | > 100 | > 100 | > 100
6 | CC(=O)NNc1nc(C)c(C(/C=C/c2ccc([N+](=O)[O-])cc2)=N/NC(N)=O)s1 | > 100 | > 100 | > 100 | > 100 | > 100 | > 100 | > 100 | > 100 | > 100 | > 100
7 | COCCOC(C)C(=O)C(O)S(=O)(=O)O (stereo not given) | > 100 | > 100 | > 100 | > 100 | > 100 | > 100 | > 100 | > 100 | > 100 | > 100
8 | Nc1ncnc2c1ncn2C1OC(CO)C(O)C1NS(=O)(=O)c1ccccc1 (stereo not given) | > 100 | > 100 | > 100 | > 100 | > 100 | > 100 | > 100 | > 100 | > 100 | > 100
